PMC7016953 (Cells, 2020)

What was measured:
TRPC6 = test system: T1, TRPC6; assay: Whole-cell patch-clamp recordings in HEK TRPC6-YFP cells; format: cell-based, human; conditions: 50 µM OAG, subsequent exposure
T1 construct: expressed in transfected cells
Experimental: (§1) The recordings of TRPC3, TRPC6, or TRPC7 membrane currents in HEK293 or PC12 cells were realized by using a Multiclamp 700B amplifier with a Digidata 1440A digitizer controlled by the PClamp 10 software (all Molecular Devices, Sunnyvale, CA, U.S.A.). Recordings were obtained at room temperature either in the whole-cell or in an outside-out configuration as indicated. Cells were seeded as described above, but at lower density, mounted in a chamber (Warner Instruments, Hamden, CT; U.S.A.), placed onto the stage of an inverted microscope, and perfused with required solution. The standard extracellular solution contained 140 mM NaCl, 5 mM CsCl, 2 mM MgCl2, 1 mM CaCl2, 10 mM HEPES, and 0.035% BSA adjusted to pH 7.4 with NaOH. The composition of standard intracellular solution was 140 mM CsCl, 1 mM MgCl2, 5 mM EGTA, and 10 mM HEPES adjusted to pH 7.25 with CsOH; the osmolarity was 295 mOsm l^−1. In outside-out measurements, the pipette solution contained 5 mM EGTA and 1.1 mM CaCl2 to achieve a calculated free Ca^2+ concentration of 100 nM.
(§2) Patch pipettes were pulled from borosilicate glass capillaries BG150F-8P (Science Products, Hofheim, Germany) with a PIP6 pipette puller (HEKA Elektronik, Lambrecht, Germany). […] In all whole-cell measurements, the series resistance was lower than 13 MΩ, and compensated by 70%. […]

[1] = test system: PC12 cells (native TRPC3 channel complexes); assay: [Ca2+]i analysis in fura-2-loaded PC12 cells; format: cell-based, rat; conditions: artemisinin 50 or 100 µM; 6–12 experiments for each compound
Experimental: Human embryonic kidney 293 (HEK293) cells were stably transfected with expression plasmids that encode hTRPC3-YFP, hTRPC6-YFP, hTRPC7-YFP, mTRPC4ß-YFP, rTRPV1-CFP, rTRPV2-YFP, rTRPV3-YFP, mTRPV4-YFP, or hTRPM2 as previously described. Cell lines were cultured in Earle’s minimum essential medium (MEM; Sigma, Munich, Germany), supplemented with 10% fetal calf serum (Gibco Thermo Fisher Scientific, Darmstadt, Germany), 2 mM L-glutamine, and required concentrations of geneticin in a range of 0.4–1 mg/mL. A HEK293mTRPC5-YFP cell line was maintained and induced as described before. The HEK293mTRPM3α2 cells (expressing the Ca^2+-permeable main variant of mouse TRPM3) were kindly provided by Johannes Oberwinkler (Marburg, Germany), the HEK293hTRPA1 cells that constitutively overexpress the human TRPA1 were from Dr. Natalie Tigue and Dr. Steve Moore (GlaxoSmithKline, Harlow, UK). With the exception of mTRPC5-YFP, all cell lines constitutively overexpress the respective TRP channel under the control of a cytomegalovirus (CMV) promoter. A HEK cell line stably expressing the human protein kinase C (PKC) ε C-terminally tagged with YFP [13] was generated and maintained in the same medium as HEKTRPC3-YFP cells. PC12 cells were cultured in RPMI-1640 (Sigma, Munich, Germany) with 10% fetal calf serum, 2 mM L-glutamine, 100 U/mL penicillin, and 0.1 mg/mL streptomycin. For electrophysiological and single cell [Ca^2+]i imaging experiments, PC12 cells were plated onto 25 mm poly-L-lysine-coated glass coverslips and measured 24–48 h after seeding. All cells were maintained at 37 °C in a 5% CO2-aerated, humidified atmosphere.
(§3) The microfluorometric single-cell [Ca^2+]i analysis was performed on an inverted epifluorescence microscope (Carl Zeiss, Jena, Germany) and calibrated as described. Cells were grown on 25 mm coverslips and loaded with 4 µM fura-2/AM (AAT Bioquest, Sunnyvale, CA, U.S.A.) in HBS containing 0.2% BSA for 30 min at 37 °C. After gently rinsing the coverslips with HBS, coverslips were mounted in a bath chamber and superfused with HBS containing 0.035% BSA.
Figure 7 Expression of TRPC3 and functional responses to TRPC activators in PC12 rat pheochromocytoma cells. (A) Immunofluorescence analysis of TRPC3 (green channel) and tyrosine hydroxylase (TH; red channel) expression in PC12 cells. Nuclei were counterstained with DAPI (blue channel). Bars: 20 µm scale. Time course of the [Ca^2+]i (B) and averaged basal and peak [Ca^2+]i values (C) were recorded by microfluorometric analysis in fura-2-loaded PC12 cells grown on glass coverslips. […] Data represent averages (B) or means and S.D. (C) of 6–12 imaging experiments for each compound. Significant increases compared to the respective basal values are indicated (#: p < 0.05; Student´s t-test for paired data).

TRPC3 [2] = molecular target: T2, TRPC3 (Homo sapiens, UniProt Q13507); assay: Fluo-4 Ca2+ influx assay in HEK TRPC3-YFP cell suspensions; format: cell-based
T2 construct: expressed in transfected cells
T2 sequence (Q13507 1-848 isoform Q13507-3): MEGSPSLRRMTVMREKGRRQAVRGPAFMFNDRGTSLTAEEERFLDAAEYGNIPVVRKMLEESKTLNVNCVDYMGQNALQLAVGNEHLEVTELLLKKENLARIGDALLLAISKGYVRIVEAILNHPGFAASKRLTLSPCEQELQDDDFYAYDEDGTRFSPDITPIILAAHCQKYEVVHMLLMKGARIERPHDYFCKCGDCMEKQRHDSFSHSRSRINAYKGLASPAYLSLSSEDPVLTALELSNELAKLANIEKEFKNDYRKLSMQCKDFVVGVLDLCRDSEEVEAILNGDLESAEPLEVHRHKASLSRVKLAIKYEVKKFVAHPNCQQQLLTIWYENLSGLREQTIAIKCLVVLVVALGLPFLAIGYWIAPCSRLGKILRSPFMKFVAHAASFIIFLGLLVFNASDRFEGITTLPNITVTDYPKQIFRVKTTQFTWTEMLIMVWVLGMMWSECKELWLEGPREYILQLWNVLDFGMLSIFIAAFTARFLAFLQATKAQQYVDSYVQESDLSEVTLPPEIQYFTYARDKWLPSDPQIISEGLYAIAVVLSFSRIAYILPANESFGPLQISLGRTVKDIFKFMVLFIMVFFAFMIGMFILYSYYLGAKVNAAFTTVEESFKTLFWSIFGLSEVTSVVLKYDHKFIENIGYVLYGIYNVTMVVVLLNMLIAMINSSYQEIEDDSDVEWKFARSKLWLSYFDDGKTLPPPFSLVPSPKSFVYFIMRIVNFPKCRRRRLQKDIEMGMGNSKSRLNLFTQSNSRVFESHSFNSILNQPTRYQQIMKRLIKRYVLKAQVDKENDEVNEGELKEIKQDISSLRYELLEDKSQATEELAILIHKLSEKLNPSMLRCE

TRPC3 [3] = test system: T3, TRPC3; assay: Microfluorometric single-cell [Ca2+]i analysis, fura-2-loaded HEK cells stably expressing TRPC3; format: cell-based, human; conditions: 100 µM OAG applied sequentially; also in HEK cells expressing mouse TRPC3
T3 construct: expressed in transfected cells
Experimental: as §3
Figure 2 Microfluorometric single-cell analysis of artemisinin-induced increases in [Ca^2+]i in fura-2-loaded HEK cells stably expressing TRPC3 (A), TRPC6 (B), or TRPC7 (C). […] Experiments were performed either in standard bath solution, containing 1 mM Ca^2+ (black lines and bars), or in a nominally Ca^2+-free HBS buffer, supplemented with 200 µM EGTA (grey lines and bars). Time courses of averaged responses (left), and statistical analysis of 6–11 independent imaging experiments with means and S.D. (right) are shown. Significant differences (p < 0.05, Student´s t-test with paired data: #, with unpaired data: *) are marked for the indicated comparisons; n.s.: difference is statistically not significant.

TRPC7 = test system: T4, TRPC7; assay: Whole-cell patch-clamp recordings in HEK TRPC7-YFP cells; format: cell-based, human; conditions: 50 µM OAG, subsequent exposure
T4 construct: expressed in transfected cells
Experimental: as §1, §2

hTRPC6-YFP = test system: T5, hTRPC6-YFP; assay: Fluo-4 Ca2+ influx assay in HEK293 cells stably expressing TRPC6; format: cell-based, human
T5 construct: expressed in transfected cells

parental HEK293 cells = assay: [Ca2+]i response in un-transfected parental HEK293 cells; format: cell-based, human; conditions: concentrations up to 50 µM
Experimental: (§4) All fluorometric Ca^2+ assays were done in (4-(2-hydroxyethyl)-1-piperazineethanesulfonic acid) (HEPES)-buffered saline (HBS), containing 132 mM NaCl, 6 mM KCl, 1 mM MgCl2, 1 mM CaCl2, 5.5 mM D-glucose, 10 mM HEPES, and 0.035% bovine serum albumin (BSA) adjusted to pH 7.4 with NaOH. For measurements in Ca^2+-free bath solutions, a modified HBS without CaCl2 was supplemented with 200 µM ethylene glycol-bis(β-aminoethyl ether)-N,N,N′,N′-tetraacetic acid (EGTA).
(§5) The primary compound screen and the generation of concentration response curves in HEK293 cells or in PC12 cells were performed by using a custom-made fluorescence plate imager built into a robotic liquid handling station equipped with a 96-tip multichannel head (Freedom Evo 150, Tecan, Männedorf, Switzerland) as described previously. To this end, trypsinized cell suspensions were loaded with 4 µM fluo-4/AM (Invitrogen, Thermo Fisher Scientific, Waltham, MA, U.S.A.) in cell culture medium for 30 min at 37 °C. After brief centrifugation, cells were resuspended in HBS and dispensed into black pigmented, clear-bottom 384-well plates (Greiner µClear, Frickenhausen, Germany). Plates were mounted on the imager, and fluorescence signals were recorded with a cooled Zyla 5.5 camera (Andor, Belfast, UK) through a 515 nm long pass filter. The image acquisition was controlled by the µManager software (http://micro-manager.org), and excitation with a LED array (470 nm) was synchronized by the camera trigger output. After baseline recording for about 60 s, the compound libraries or serial dilutions of activators or inhibitors were added to the cells by the liquid handling device. When inhibitory potencies were evaluated, a second pipetting step with the respective reference agonist was performed. Fluorescence intensities were calculated from image stacks for each well with ImageJ (National Institutes of Health, Bethesda, MD, U.S.A.), corrected for background signals, and normalized to the initial intensities (F/F0). […]

hTRPC7-YFP = test system: T6, hTRPC7-YFP; assay: Fluo-4 Ca2+ influx assay in HEK293 cells stably expressing TRPC7; format: cell-based, human; conditions: fluo-4 concentration response analysis
T6 construct: expressed in transfected cells

[4] = test system: T7, heteromeric TRPC3:TRPC6 channel complexes; assay: Fluo-4 Ca2+ influx assay in HEK293 cells co-expressing TRPC3 and TRPC6; format: cell-based; conditions: fluo-4 concentration response analysis
T7 construct: expressed in transfected cells; host or cells: HEK293, stably co-transfected
Experimental: as §4, §5

Row | EC50 of OAG in the presence of artemisinin (TRPC3 [2]; 30 or 100 µM artemisinin co-applied) | TRPC3 activation in concentration response analysis (TRPC3 [2]; fluo-4, up to 200 µM, compared with solvent (DMSO)) | SMILES | current densities in TRPC6-expressing HEK cells (TRPC6) | [Ca2+]i in fura 2-loaded PC12 cells [1] | further increase in [Ca2+]i after challenge with maximally effective artemisinin (TRPC3 [3]) | current densities in TRPC7-expressing HEK cells (TRPC7) | effect on TRPC6 (hTRPC6-YFP; fluo-4 concentration response analysis) | signal in counterscreen with TRPC6-expressing cells (hTRPC6-YFP; primary screen, 20 µM) | response of un-transfected parental HEK293 cells (parental HEK293 cells) | effect on TRPC7 (hTRPC7-YFP) | fluorescence signal of the Ca2+ indicator in primary screen (TRPC3 [2]; 20 µM, acute addition) | response of cells stably transfected with both TRPC3 and TRPC6 [4]
1 | shifted to lower concentrations | – | CCCCCCCC/C=C\CCCCCCCC(=O)OC[C@H](CO)OC(C)=O [OAG, 1-oleoyl-2-acetyl-sn-glycerol] | caused increases in current densities | significant increases in [Ca^2+]i | failed to induce a further increase in [Ca^2+]i | caused increases in current densities | – | – | – | – | – | –
2 | – | did not reach saturation | C[C@H]1[C@@H](O)O[C@@H]2O[C@@]3(C)CC[C@H]4[C@H](C)CC[C@@H]1[C@@]24OO3 [artenimol] | – | – | – | – | marked preference to activate TRPC3, but not the closely related TRPC6 channel | no signals | no response | remained largely unaffected | immediate and transient increase in the fluorescence signal | in a very similar fashion as HEKTRPC3-YFP cells
